Source: patent US20210332024A1, “MODULATORS OF PIN1 ACTIVITY AND USES THEREOF” (Yeda Research and Development Co. Ltd., priority 2019, published 2021)

System: MDA-MB-231 cells
Assay: Cell viability assay (CellTiter-Glo)
Assay type: cell-based
Conditions: Homo sapiens; cell viability assay with MDA-MB-231 cells
Experimental: MDA-MB-231 cells grew in DMEM medium supplemented with 10% FCS (fetal calf serum), 1% PS (penicillin-streptomycin) and 1% L-glutamine (all from Biological Industries). Exclusion of mycoplasma contamination was monitored and conducted by test with MycoAlert™ kit (Lonza). Cells were trypsinized and counted, and 1000 cells/well were plated in 50 μl of growth medium into 384-well white TC plates (Greiner) using Multidrop™ 384 (Thermo Scientific) Washer Dispenser II. The number of viable cells was monitored using CellTiter-Glo® Luminescent kit (Promega) in accordance with the manufacturer's protocol. Luminescence was measured using luminescence module of PHERAstar™ FS plate reader (BMG Labtech). Data analysis was performed using GeneData 12 analytic software. Assay ready plate preparation: Compounds transferred into black microplates (Greiner 784900) using Labcyte Echo® acoustic dispensing technology. Assay ready plates were then sealed with heat seals. If not used immediately, plates were frozen at −20° C. and held in polypropylene boxes with silica-gel desiccant.
Exemplary Pin1-binding compounds were also tested for non-selective cytotoxicity in a viability assay against IMR90 lung fibroblasts.

CC(C)(C)CN(C(=O)CCl)C1CCS(=O)(=O)C1 (stereo not shown) [Pin1-3, 2-chloro-N-(sulfolan-3-yl)-N-neopentylacetamide]
EC50: > 25 µM
